Molecular target: T1, P. aeruginosa PGDH (SerA) (Pseudomonas aeruginosa, UniProt Q9I6H5)
T1 construct: full-length ORF, N-terminal GST fusion (pGEX-6P-1), GST cut off on resin by protease, expressed in E. coli BL21, 44 kDa
T1 sequence (Q9I6H5 1-409): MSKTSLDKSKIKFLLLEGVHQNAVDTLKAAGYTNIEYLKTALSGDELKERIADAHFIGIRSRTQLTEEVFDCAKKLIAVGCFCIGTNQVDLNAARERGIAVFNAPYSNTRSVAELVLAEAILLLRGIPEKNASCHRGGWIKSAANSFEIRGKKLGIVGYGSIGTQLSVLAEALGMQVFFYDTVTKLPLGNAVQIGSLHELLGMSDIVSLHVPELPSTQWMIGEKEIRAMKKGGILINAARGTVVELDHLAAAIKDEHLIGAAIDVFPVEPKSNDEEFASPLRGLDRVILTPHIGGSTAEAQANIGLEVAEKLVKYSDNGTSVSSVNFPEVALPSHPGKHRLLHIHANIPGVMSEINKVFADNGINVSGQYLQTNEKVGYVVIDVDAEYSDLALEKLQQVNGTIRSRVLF
Assay: NADH formation at […] nm
Assay type: biochemical

| SMILES | IC50 [mM] |
| --- | --- |
| N[C@H](CO)C(=O)O [D-serine] | 76 |
| N[C@@H](CO)C(=O)O [L-serine] | 0.63 |

— paper PMC6600881 (Gut Pathogens, 2019)
